Results from paper PMC7368294 (Proceedings of the National Academy of Sciences of the …, 2020).

Experiments:
[1] = biological target: Btα1/Btα2/Btα8/Btβ1 nAChR (Bombus terrestris, UniProt A0A9B0BGM1+A0A9B0F4H3+A0A9B2JDZ7+A0A9B2JMX7); assay: two-electrode voltage clamp of Xenopus oocytes, agonist concentration-response; assay type: cell-based
Amα1/Amα8/Amβ1 nAChR = biological target: T1, Amα1/Amα8/Amβ1 nAChR (Apis mellifera, UniProt A0A7M7MMZ9+A0A8U0WQ70+A0A8U0WQC0); assay: as above; assay type: cell-based
T1 sequence (A0A7M7MMZ9 44-627): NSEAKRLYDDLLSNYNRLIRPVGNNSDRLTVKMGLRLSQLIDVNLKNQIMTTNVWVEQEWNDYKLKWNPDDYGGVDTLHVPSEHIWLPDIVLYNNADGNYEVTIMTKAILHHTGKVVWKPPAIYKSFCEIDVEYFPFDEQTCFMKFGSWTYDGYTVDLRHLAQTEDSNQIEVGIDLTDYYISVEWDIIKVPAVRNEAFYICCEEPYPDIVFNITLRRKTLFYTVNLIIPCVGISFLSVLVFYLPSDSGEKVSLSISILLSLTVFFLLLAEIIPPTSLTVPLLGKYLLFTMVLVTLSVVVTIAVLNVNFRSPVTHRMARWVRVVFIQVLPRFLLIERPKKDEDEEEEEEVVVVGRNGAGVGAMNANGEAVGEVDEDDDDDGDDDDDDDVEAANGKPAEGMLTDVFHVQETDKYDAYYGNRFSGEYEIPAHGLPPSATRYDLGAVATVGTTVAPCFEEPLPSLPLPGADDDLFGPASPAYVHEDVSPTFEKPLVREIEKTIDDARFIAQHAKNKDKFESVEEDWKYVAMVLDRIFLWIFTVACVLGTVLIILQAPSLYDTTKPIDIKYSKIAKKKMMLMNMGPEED
T1 sequence (A0A8U0WQ70 25-537): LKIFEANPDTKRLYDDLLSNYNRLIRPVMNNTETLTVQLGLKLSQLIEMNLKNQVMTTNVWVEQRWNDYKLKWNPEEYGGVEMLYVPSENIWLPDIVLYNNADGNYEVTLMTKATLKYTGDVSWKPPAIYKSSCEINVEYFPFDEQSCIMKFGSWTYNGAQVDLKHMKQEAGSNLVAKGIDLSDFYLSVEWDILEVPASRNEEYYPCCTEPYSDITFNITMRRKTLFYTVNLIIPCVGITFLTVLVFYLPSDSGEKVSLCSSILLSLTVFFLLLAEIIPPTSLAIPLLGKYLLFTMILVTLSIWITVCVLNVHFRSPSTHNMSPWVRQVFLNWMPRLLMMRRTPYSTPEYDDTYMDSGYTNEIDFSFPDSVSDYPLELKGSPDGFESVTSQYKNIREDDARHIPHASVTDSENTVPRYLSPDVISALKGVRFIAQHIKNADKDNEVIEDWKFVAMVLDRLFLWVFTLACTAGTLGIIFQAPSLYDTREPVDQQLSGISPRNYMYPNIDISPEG
T1 sequence (A0A8U0WQC0 25-520): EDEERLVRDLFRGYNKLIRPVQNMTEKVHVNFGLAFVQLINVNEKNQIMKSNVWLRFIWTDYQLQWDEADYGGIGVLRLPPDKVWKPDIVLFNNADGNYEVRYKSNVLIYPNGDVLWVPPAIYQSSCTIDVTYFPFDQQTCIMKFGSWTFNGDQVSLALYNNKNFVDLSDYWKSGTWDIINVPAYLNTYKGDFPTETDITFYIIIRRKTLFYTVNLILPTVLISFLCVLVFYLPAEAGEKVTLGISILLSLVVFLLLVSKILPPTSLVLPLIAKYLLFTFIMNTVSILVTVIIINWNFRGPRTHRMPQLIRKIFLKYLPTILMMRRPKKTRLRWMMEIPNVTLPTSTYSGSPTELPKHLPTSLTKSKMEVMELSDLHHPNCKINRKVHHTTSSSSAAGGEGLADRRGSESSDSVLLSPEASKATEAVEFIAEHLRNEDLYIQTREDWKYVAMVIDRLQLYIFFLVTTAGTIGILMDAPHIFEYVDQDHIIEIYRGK

Sequence of Btα1/Btα2/Btα8/Btβ1 nAChR (A0A9B0F4H3 44-615): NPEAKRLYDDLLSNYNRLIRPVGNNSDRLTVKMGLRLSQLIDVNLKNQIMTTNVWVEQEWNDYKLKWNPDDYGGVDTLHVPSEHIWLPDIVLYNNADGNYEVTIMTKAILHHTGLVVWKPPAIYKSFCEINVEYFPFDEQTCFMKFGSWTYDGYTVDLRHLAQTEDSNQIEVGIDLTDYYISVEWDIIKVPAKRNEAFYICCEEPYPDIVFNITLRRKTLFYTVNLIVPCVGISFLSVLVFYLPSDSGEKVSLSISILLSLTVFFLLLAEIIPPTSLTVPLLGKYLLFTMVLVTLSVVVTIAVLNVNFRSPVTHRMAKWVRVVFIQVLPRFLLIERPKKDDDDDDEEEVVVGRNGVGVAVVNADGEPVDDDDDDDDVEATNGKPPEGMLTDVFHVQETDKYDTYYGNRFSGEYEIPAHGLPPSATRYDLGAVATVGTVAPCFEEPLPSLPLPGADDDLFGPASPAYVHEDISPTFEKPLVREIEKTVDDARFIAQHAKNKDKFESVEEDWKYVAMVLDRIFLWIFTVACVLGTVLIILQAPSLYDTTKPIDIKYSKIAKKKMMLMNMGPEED
Sequence of Btα1/Btα2/Btα8/Btβ1 nAChR (A0A9B2JMX7 18-544): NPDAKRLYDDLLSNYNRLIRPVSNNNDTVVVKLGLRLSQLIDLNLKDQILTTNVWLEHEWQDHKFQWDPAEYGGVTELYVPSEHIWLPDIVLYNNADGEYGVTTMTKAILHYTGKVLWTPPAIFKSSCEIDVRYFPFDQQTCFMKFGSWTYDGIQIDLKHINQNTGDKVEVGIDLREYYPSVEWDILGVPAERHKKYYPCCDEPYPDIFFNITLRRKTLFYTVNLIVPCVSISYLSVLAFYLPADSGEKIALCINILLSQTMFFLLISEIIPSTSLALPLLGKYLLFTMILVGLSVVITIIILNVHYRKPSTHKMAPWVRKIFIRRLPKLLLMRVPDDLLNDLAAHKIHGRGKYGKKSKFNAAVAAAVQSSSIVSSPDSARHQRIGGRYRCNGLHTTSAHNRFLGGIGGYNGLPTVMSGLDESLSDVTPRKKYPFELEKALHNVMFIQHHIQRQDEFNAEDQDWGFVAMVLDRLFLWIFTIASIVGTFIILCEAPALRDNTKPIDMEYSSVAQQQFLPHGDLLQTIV
Sequence of Btα1/Btα2/Btα8/Btβ1 nAChR (A0A9B2JDZ7 22-535): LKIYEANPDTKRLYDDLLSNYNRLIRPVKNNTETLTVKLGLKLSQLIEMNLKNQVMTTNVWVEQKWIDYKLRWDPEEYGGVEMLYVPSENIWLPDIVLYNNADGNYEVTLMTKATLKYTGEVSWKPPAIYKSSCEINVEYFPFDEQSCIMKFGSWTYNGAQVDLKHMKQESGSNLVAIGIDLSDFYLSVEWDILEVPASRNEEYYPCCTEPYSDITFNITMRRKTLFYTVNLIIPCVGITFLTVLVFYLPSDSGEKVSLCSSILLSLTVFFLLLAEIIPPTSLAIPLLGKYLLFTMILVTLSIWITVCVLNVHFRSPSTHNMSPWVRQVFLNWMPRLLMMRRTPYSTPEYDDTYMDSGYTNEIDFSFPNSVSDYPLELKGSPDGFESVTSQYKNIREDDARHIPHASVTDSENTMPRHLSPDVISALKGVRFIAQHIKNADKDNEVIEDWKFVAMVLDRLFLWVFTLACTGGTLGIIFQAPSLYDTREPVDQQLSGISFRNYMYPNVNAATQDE
Sequence of Btα1/Btα2/Btα8/Btβ1 nAChR (A0A9B0BGM1 19-519): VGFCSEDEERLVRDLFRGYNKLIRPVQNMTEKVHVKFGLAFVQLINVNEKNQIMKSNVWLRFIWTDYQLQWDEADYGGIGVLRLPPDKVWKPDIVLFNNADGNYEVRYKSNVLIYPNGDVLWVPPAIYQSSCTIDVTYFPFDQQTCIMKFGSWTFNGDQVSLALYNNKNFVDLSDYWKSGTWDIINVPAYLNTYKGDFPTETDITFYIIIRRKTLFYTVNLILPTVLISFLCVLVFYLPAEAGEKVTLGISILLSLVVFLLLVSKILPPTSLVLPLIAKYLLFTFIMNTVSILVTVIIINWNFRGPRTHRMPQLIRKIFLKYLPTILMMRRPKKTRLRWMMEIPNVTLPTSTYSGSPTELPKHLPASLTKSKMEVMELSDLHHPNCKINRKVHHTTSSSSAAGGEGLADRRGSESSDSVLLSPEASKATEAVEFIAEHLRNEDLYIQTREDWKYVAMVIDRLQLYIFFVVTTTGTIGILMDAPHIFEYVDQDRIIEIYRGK

Compound | EC50 [1] [nM] | EC50 (Amα1/Amα8/Amβ1 nAChR) [nM]
CN/C(=N\[N+](=O)[O-])NCc1cnc(Cl)s1 [clothianidin] | 38.9 | 11
N#C/N=C1\SCCN1Cc1ccc(Cl)nc1 [thiacloprid] | 72.4 | 11.5
O=[N+]([O-])NC1=NCCN1Cc1ccc(Cl)nc1 [imidacloprid] | 39.8 | 23.4
